System: kidney tissue of g-ddY mice
Assay: RNA-seq differential gene expression in kidney tissue of g-ddY mice
Format: in vivo, mouse
Experimental: RNA isolation and sequencing libraries were generated using standard protocols. Sequencing was performed using an Illumina NextSeq500 using manufacturer's instructions with a read length of 75 bp and a read depth of 30 million. Raw data was assembled to FASTQ files. Following QC analysis, high quality sequencing reads (e.g., reads with a Phred quality score >36) were aligned to the mouse reference genome (GRCm38-mm10) using the default parameters of the align algorithm and transcript count tables of each library was generated using the default parameters of the featureCounts algorithm of the RSubread package (Liao Y, Smyth GK, Shi W, 2019). High quality sequencing reads mapped to 27,129 genes. Following additional QC of low count filtering (i.e. transcripts <10 counts across all samples), 16,207 genes were identified and used for further analysis. The remaining sequencing read counts of the included 16,207 genes were normalized to library size, log-transformed, and were quantified as counts per million (CPM). Select RNA-seq counts were validated using qPCR. Sequencing read counts (CPM) were used for identification of differential gene expression between specified populations using the quasi-likelihood methodology of the edgeR package. […] MA plots were generated using edgeR. Heatmaps and other plots were generated using the gplots and ggplot2 package.

[1] = 20 mg/kg/day vs control, cell proliferation signaling
[2] = 20 mg/kg/day vs control, inflammatory response signaling
[3] = 20 mg/kg/day vs control, mesangial cell signature
[4] = 30 mg/kg/day vs control, IL6 signaling
[5] = 30 mg/kg/day vs control, NF-kB signaling
[6] = 30 mg/kg/day vs control, PDGF signaling
[7] = 30 mg/kg/day vs control, cell proliferation signaling
[8] = 30 mg/kg/day vs control, inflammatory response signaling
[9] = 30 mg/kg/day vs control, mesangial cell signature

Compound: CCCCN(CCCC)C(=O)CN1C[C@H](c2ccc3c(c2)OCO3)[C@@H](C(=O)O)[C@@H]1c1ccc(OC)cc1 [atrasentan, (2R,3R,4S)-4-(1,3-benzodioxol-5-yl)-1-[2-(dibutylamino)-2-oxoethyl]-2-(4-methoxyphenyl)pyrrolidine-3-carboxylic acid]
- Rapgef5 logFC [1]: −0.3804
- Rhot2 logFC [1]: 0.4576
- Slc7a1 logFC [1]: −0.7304
- Slc12a2 logFC [1]: −0.3373
- Slc38a1 logFC [1]: −0.6989
- Smc3 logFC [1]: −0.1696
- Sorbs2 logFC [1]: −0.4717
- Tiam1 logFC [1]: −0.9494
- Tuba4a logFC [1]: 0.2861
- Vcl logFC [1]: −0.3317
- Ythdc1 logFC [1]: −0.0815
- Btg2 logFC [2]: −0.6974
- Cdkn1a logFC [2]: 0.2546
- Chst2 logFC [2]: −0.368
- Csf1 logFC [2]: −1.089
- Edn1 logFC [2]: −1.328
- Eif2ak2 logFC [2]: −0.3002
- F3 logFC [2]: −0.5235
- Gabbr1 logFC [2]: −0.1316
- Hpn logFC [2]: 0.4187
- Il1r1 logFC [2]: −0.8263
- Ly6e logFC [2]: 0.2436
- Nfkb1 logFC [2]: −0.616
- Nfkbia logFC [2]: −0.7041
- Rnf144b logFC [2]: −0.9765
- Ros1 logFC [2]: −1.992
- Serpine1 logFC [2]: −1.501
- Slc4a4 logFC [2]: 0.5245
- Slc7a1 logFC [2]: −0.7304
- Slc7a2 logFC [2]: −1.336
- Slc11a2 logFC [2]: 0.35
- Ahnak logFC [3]: −0.7128
- Akap12 logFC [3]: −0.5404
- Akt3 logFC [3]: −0.4673
- Aldob logFC [3]: 0.4923
- Ankrd12 logFC [3]: −0.2463
- C7 logFC [3]: −1.277
- Cald1 logFC [3]: −0.5361
- Cblb logFC [3]: −0.2068
- Ebf1 logFC [3]: −0.3512
- Epb41l2 logFC [3]: −0.6149
- Ets1 logFC [3]: −0.3065
- Fchsd2 logFC [3]: −0.1882
- Frmd4a logFC [3]: −0.3955
- Gata3 logFC [3]: −0.4924
- Gpx3 logFC [3]: 0.71
- Igfbp7 logFC [3]: 0.1088
- Lama2 logFC [3]: −0.4437
- Maml2 logFC [3]: −0.2311
- Mef2c logFC [3]: −0.6302
- Meis1 logFC [3]: −0.3593
- Myh9 logFC [3]: −0.4543
- Myo1e logFC [3]: −0.292
- Nbea logFC [3]: −0.1933
- Nfkbia logFC [3]: −0.7041
- Nr4a1 logFC [3]: −1.621
- Piezo2 logFC [3]: −0.6148
- Postn logFC [3]: −2.293
- Pparg logFC [3]: −0.5616
- Ppp1r12a logFC [3]: −0.2135
- Prkg1 logFC [3]: −0.328
- Psd3 logFC [3]: −0.5227
- Ptprm logFC [3]: −0.2678
- Rapgef5 logFC [3]: −0.3804
- Raph1 logFC [3]: −0.3852
- Rbms3 logFC [3]: −0.7192
- Robo1 logFC [3]: −0.7261
- Stard13 logFC [3]: −0.6367
- Tacc1 logFC [3]: −0.3693
- Tcf4 logFC [3]: −0.224
- Tjp1 logFC [3]: −0.3054
- Tns3 logFC [3]: −0.3043
- Unc5c logFC [3]: 0.3685
- Utrn logFC [3]: −0.5143
- Zeb2 logFC [3]: −0.6492
- Cntfr logFC [4]: −0.9365
- Csf1 logFC [4]: −1.26
- Il1r1 logFC [4]: −0.6078
- Il2ra logFC [4]: −1.58
- Map3k8 logFC [4]: −0.8664
- Ackr3 logFC [5]: 0.5485
- Btg1 logFC [5]: −0.4825
- Btg2 logFC [5]: −0.6689
- Ccn1 logFC [5]: −0.9198
- Ccnd1 logFC [5]: 0.6947
- Cdkn1a logFC [5]: 0.6369
- Csf1 logFC [5]: −1.26
- Dnajb4 logFC [5]: −0.7534
- Edn1 logFC [5]: −1.688
- Efna1 logFC [5]: 0.7278
- Ehd1 logFC [5]: 0.4138
- F3 logFC [5]: −0.564
- Fosl2 logFC [5]: −1.205
- Gem logFC [5]: −1.912
- Id2 logFC [5]: 0.5394
- Ifit2 logFC [5]: −0.6119
- Jag1 logFC [5]: −0.6784
- Klf2 logFC [5]: −0.7182
- Klf4 logFC [5]: −0.9474
- Map3k8 logFC [5]: −0.8664
- Nfat5 logFC [5]: −0.5845
- Nfkb1 logFC [5]: −0.6498
- Nfkbia logFC [5]: −0.7307
- Nr4a1 logFC [5]: −1.803
- Nr4a2 logFC [5]: −1.728
- Nr4a3 logFC [5]: −1.939
- Per1 logFC [5]: −0.9307
- Pfkfb3 logFC [5]: −1.485
- Pnrcl logFC [5]: 0.4856
- Rel logFC [5]: −1.298
- Rhob logFC [5]: −0.7265
- Serpine1 logFC [5]: −1.387
- Snn logFC [5]: 0.4725
- Spsb1 logFC [5]: −1.097
- Tnfaip8 logFC [5]: 0.517
- Traf1 logFC [5]: −1.371
- Trib1 logFC [5]: −1.074
- Zbtb10 logFC [5]: −0.2912
- Hras logFC [6]: 0.4354
- Map3k1 logFC [6]: −0.7636
- Nfkb1 logFC [6]: −0.6498
- Nfkbia logFC [6]: −0.7307
- Pdgfb logFC [6]: −0.5424
- Pdgfra logFC [6]: −0.7094
- Pik3cg logFC [6]: −0.7287
- Pik3r1 logFC [6]: −0.6223
- Pla2g4a logFC [6]: −0.9024
- Tiam1 logFC [6]: −1.227
- Arid4a logFC [7]: −0.5719
- Atrx logFC [7]: −0.4031
- Bcar1 logFC [7]: 0.4182
- Ccdc88a logFC [7]: −0.7206
- Ccnd1 logFC [7]: 0.6947
- Cep192 logFC [7]: −0.43
- Cntrl logFC [7]: −0.5569
- Dmd logFC [7]: −0.405
- Epb41l2 logFC [7]: −0.7021
- Fgd6 logFC [7]: −0.6983
- Flna logFC [7]: −0.6183
- Itsn1 logFC [7]: −0.5129
- Kmt5a logFC [7]: 0.4169
- Meis1 logFC [7]: −0.4934
- Myh9 logFC [7]: −0.6171
- Myh10 logFC [7]: −0.5242
- Myo1e logFC [7]: −0.4177
- Nin logFC [7]: −0.7352
- Ophn1 logFC [7]: −0.7129
- Rapgef5 logFC [7]: −0.4225
- Rhot2 logFC [7]: 0.5432
- Slc7a1 logFC [7]: −0.7952
- Slc12a2 logFC [7]: −0.3306
- Slc38a1 logFC [7]: −0.8108
- Smc3 logFC [7]: −0.4558
- Sorbs2 logFC [7]: −0.3601
- Tiam1 logFC [7]: −1.227
- Tuba4a logFC [7]: 0.4958
- Vcl logFC [7]: −0.3604
- Ythdc1 logFC [7]: −0.3579
- Btg2 logFC [8]: −0.6689
- Cdkn1a logFC [8]: 0.6369
- Chst2 logFC [8]: −0.9214
- Csf1 logFC [8]: −1.26
- Edn1 logFC [8]: −1.688
- Eif2ak2 logFC [8]: −0.5033
- F3 logFC [8]: −0.564
- Gabbr1 logFC [8]: −0.5762
- Hpn logFC [8]: 0.6197
- Il1r1 logFC [8]: −0.6078
- Ly6e logFC [8]: 0.6857
- Nfkb1 logFC [8]: −0.6498
- Nfkbia logFC [8]: −0.7307
- Rnf144b logFC [8]: −0.8848
- Ros1 logFC [8]: −1.985
- Serpine1 logFC [8]: −1.387
- Slc4a4 logFC [8]: 0.6146
- Slc7a1 logFC [8]: −0.7952
- Slc7a2 logFC [8]: −0.9808
- Slc11a2 logFC [8]: 0.4205
- Ahnak logFC [9]: −1.013
- Akap12 logFC [9]: −0.8211
- Akt3 logFC [9]: −0.4843
- Aldob logFC [9]: 0.748
- Ankrd12 logFC [9]: −0.4726
- C7 logFC [9]: −1.079
- Cald1 logFC [9]: −0.506
- Cblb logFC [9]: −0.4288
- Ebf1 logFC [9]: −0.4506
- Epb41l2 logFC [9]: −0.7021
- Ets1 logFC [9]: −0.3379
- Fchsd2 logFC [9]: −0.3772
- Frmd4a logFC [9]: −0.5742
- Gata3 logFC [9]: −0.5216
- Gpx3 logFC [9]: 1.122
- Igfbp7 logFC [9]: 0.4259
- Lama2 logFC [9]: −0.4895
- Maml2 logFC [9]: −0.4441
- Mef2c logFC [9]: −0.6869
- Meis1 logFC [9]: −0.4934
- Myh9 logFC [9]: −0.6171
- Myo1e logFC [9]: −0.4177
- Nbea logFC [9]: −0.432
- Nfkbia logFC [9]: −0.7307
- Nr4a1 logFC [9]: −1.803
- Piezo2 logFC [9]: −0.8237
- Postn logFC [9]: −1.247
- Pparg logFC [9]: −0.6781
- Ppp1r12a logFC [9]: −0.3826
- Prkg1 logFC [9]: −0.6356
- Psd3 logFC [9]: −0.5843
- Ptprm logFC [9]: −0.5453
- Rapgef5 logFC [9]: −0.4225
- Raph1 logFC [9]: −0.5358
- Rbms3 logFC [9]: −0.8895
- Robo1 logFC [9]: −0.6009
- Stard13 logFC [9]: −0.8466
- Tacc1 logFC [9]: −0.4924
- Tcf4 logFC [9]: −0.3055
- Tjp1 logFC [9]: −0.3989
- Tns3 logFC [9]: −0.4522
- Unc5c logFC [9]: 0.9517
- Utrn logFC [9]: −0.7697
- Zeb2 logFC [9]: −0.6778
